# Reference: ChEMBL document CHEMBL2163210, “Aryl Piperazinyl Ureas as Inhibitors of Fatty Acid Amide Hydrolase (FAAH) in Rat, Dog, and Primate” (ACS Med Chem Lett, 2012)
# Key:
# Cynomolgus monkey [1] = test: Inhibition of cynomolgus monkey FAAH assessed as increase in plasma N-palmitoylethanolamide level at 1 mg/kg, iv at 4 hrs relative to control; format: functional; settings: Macaca fascicularis
# Cynomolgus monkey [2] = test: Inhibition of cynomolgus monkey FAAH assessed as increase in plasma N-oleoylethanolamide level at 1 mg/kg, iv at 4 hrs relative to control; format: functional; settings: Macaca fascicularis
# Cynomolgus monkey [3] = test: Inhibition of cynomolgus monkey FAAH assessed as increase in plasma anandamide level at 1 mg/kg, iv at 4 hrs relative to control; format: functional; settings: Macaca fascicularis
# [4] = Oral bioavailability in cynomolgus monkey at 5 mg/kg; format: ADME, organism-based, Macaca fascicularis; settings: in vivo
# [5] = Volume of distribution at steady state in cynomolgus monkey at 1 mg/kg, iv and 5 mg/kg, po; format: ADME, organism-based, Macaca fascicularis; settings: in vivo, read-out: Vdss
# [6] = Apparent volume of distribution in cynomolgus monkey at 1 mg/kg, iv and 5 mg/kg, po; format: ADME, organism-based, Macaca fascicularis; settings: in vivo, read-out: Vz
# [7] = target: T1, Fatty-acid amide hydrolase 2 (Homo sapiens, UniProt Q6GMR7); test: Inhibition of FAAH2
# T1 sequence (Q6GMR7 whole entry): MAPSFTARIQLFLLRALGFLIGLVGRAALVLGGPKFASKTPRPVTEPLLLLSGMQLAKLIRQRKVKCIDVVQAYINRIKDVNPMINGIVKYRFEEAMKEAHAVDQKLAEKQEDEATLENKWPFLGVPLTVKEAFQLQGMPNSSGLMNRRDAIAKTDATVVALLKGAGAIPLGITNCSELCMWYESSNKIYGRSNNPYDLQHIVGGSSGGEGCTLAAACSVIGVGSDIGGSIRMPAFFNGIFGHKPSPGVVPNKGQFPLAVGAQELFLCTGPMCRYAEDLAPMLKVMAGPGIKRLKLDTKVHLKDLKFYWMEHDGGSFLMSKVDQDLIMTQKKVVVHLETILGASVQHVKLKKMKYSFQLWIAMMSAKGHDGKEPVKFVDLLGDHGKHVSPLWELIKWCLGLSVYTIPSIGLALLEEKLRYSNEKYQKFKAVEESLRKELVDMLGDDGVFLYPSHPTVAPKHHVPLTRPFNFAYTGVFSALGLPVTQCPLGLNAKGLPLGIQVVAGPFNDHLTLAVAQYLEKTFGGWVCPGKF
# [8] = Clearance in cynomolgus monkey at 1 mg/kg, iv and 5 mg/kg, po; format: ADME, organism-based, Macaca fascicularis; settings: in vivo
# Canis familiaris [9] = test: Inhibition of Beagle dog FAAH assessed as increase in plasma N-palmitoylethanolamide level at 1 mg/kg, iv and 5 mg/kg, po at 6 to 8 hrs relative to control; format: functional, Canis lupus familiaris
# Canis familiaris [10] = test: Inhibition of Beagle dog FAAH assessed as increase in plasma N-oleoylethanolamide level at 1 mg/kg, iv and 5 mg/kg, po at 2 to 3 hrs relative to control; format: functional, Canis lupus familiaris
# [11] = Oral bioavailability in Beagle dog at 5 mg/kg; format: ADME, organism-based, Canis lupus familiaris; settings: in vivo
# [12] = Volume of distribution at steady state in Beagle dog at 1 mg/kg, iv and 5 mg/kg, po; format: ADME, organism-based, Canis lupus familiaris; settings: in vivo, read-out: Vdss
# [13] = Apparent volume of distribution in Beagle dog at 1 mg/kg, iv and 5 mg/kg, po; format: ADME, organism-based, Canis lupus familiaris; settings: in vivo, read-out: Vz
# [14] = Clearance in Beagle dog at 1 mg/kg, iv and 5 mg/kg, po; format: ADME, organism-based, Canis lupus familiaris; settings: in vivo
# Rattus norvegicus [15] = test: Inhibition of rat FAAH assessed as increase in plasma N-oleoylethanolamide level at 3 mg/kg, po at 4 hrs relative to control; format: functional
# Rattus norvegicus [16] = test: Inhibition of rat FAAH assessed as increase in plasma N-palmitoylethanolamide level at 3 mg/kg, po at 4 hrs relative to control; format: functional
# Rattus norvegicus [17] = test: Inhibition of rat FAAH assessed as increase in plasma anandamide level at 3 mg/kg, po at 4 hrs relative to control; format: functional
# Rattus norvegicus [18] = test: Inhibition of rat FAAH assessed as increase in brain N-oleoylethanolamide level at 10 mg/kg, po at 4 hrs relative to control; format: functional
# Rattus norvegicus [19] = test: Inhibition of rat FAAH assessed as increase in brain anandamide level at 10 mg/kg, po at 4 hrs relative to control; format: functional
# Rattus norvegicus [20] = test: Inhibition of rat FAAH assessed as increase in brain N-palmitoylethanolamide level at 10 mg/kg, po at 4 hrs relative to control; format: functional
# Rattus norvegicus [21] = test: Inhibition of FAAH in rat at 3 mg/kg, po at 12 hrs; format: functional
# [22] = Plasma concentration in rat at 3 mg/kg, po at 24 hrs; format: ADME, organism-based; design: dose 3 mg/kg, route oral
# [23] = Plasma concentration in rat at 3 mg/kg, po at 12 hrs; format: ADME, organism-based; design: dose 3 mg/kg, route oral
# [24] = Plasma concentration in rat at 3 mg/kg, po at 6 hrs; format: ADME, organism-based; design: dose 3 mg/kg, route oral
# Rattus norvegicus [25] = test: Volume of distribution at steady state in rat at 0.3 to 10 mg/kg, po; format: ADME, organism-based; design: dose 0.3-10 mg/kg, route oral; settings: in vivo
# [26] = Oral bioavailability in rat at 0.3 to 10 mg/kg; format: ADME, organism-based; settings: in vivo
# Rattus norvegicus [27] = test: Apparent volume of distribution in rat at 0.3 to 10 mg/kg, po; format: ADME, organism-based; design: dose 0.3-10 mg/kg, route oral; settings: in vivo
# [28] = Clearance in rat at 0.3 to 10 mg/kg, po; format: ADME, organism-based; design: dose 0.3-10 mg/kg, route oral; settings: in vivo
# [29] = Ratio of drug level in brain to plasma in rat at 0.3 to 10 mg/kg, po; format: ADME, organism-based; design: dose 0.3-10 mg/kg, route oral; settings: read-out: BPR
# Brain = test: Drug uptake in po dosed rat brain; format: ADME, organism-based; settings: in vivo
# Plasma = test: Drug uptake in po dosed rat plasma; format: ADME, organism-based; settings: in vivo
# [30] = Plasma concentration in rat at 3 mg/kg, po at 4 hrs; format: ADME, organism-based; design: dose 3 mg/kg, route oral
# Canis familiaris [31] = test: Inhibition of Beagle dog FAAH assessed as increase in plasma anandamide level at 1 mg/kg, iv and 5 mg/kg, po at 2 to 3 hrs relative to control; format: functional, Canis lupus familiaris
# [32] = target: T2, Fatty-acid amide hydrolase 1 (Homo sapiens, UniProt O00519); test: Inhibition of human FAAH after 1 hr
# T2 sequence (O00519 whole entry): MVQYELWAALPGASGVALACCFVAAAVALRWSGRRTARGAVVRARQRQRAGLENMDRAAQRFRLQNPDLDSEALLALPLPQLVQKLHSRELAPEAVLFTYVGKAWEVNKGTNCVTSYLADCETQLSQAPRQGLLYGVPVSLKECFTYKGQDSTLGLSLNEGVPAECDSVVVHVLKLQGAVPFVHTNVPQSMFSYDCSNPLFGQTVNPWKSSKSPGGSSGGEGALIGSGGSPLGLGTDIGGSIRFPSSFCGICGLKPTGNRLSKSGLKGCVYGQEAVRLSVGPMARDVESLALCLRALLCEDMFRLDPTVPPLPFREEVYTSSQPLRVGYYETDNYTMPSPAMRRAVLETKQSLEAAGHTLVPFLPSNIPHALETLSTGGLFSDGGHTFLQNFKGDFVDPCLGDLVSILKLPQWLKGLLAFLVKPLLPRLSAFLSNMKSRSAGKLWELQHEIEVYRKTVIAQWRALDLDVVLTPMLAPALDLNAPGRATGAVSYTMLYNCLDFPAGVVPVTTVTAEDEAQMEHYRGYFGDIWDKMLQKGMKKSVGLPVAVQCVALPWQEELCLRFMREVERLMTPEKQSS
# [33] = target: T3, Fatty-acid amide hydrolase 1 (Rattus norvegicus, UniProt P97612)
# T3 sequence (P97612 whole entry): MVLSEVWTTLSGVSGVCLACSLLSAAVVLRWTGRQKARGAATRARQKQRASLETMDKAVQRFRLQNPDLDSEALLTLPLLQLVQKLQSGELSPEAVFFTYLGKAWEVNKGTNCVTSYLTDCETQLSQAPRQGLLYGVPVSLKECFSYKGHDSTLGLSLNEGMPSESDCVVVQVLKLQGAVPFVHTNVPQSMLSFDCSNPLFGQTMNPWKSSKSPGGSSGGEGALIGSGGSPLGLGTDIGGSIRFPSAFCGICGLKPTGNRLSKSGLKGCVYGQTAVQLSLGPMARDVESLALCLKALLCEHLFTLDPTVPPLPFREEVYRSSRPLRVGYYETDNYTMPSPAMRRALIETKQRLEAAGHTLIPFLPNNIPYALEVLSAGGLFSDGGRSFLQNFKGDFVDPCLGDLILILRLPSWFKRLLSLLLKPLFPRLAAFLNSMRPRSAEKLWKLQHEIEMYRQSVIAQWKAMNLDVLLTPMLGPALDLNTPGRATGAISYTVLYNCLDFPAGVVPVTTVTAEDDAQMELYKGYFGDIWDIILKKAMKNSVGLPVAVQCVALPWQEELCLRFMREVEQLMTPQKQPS
# Description: Inhibition of rat FAAH after 1 hr
smiles,measurement,setting,value
O=C(Nc1cccnc1)N1CCN(Cc2cccc(Oc3ccc(Cl)cc3)c2)CC1,inhibition in vivo at 1 mg/kg,Cynomolgus monkey [1],150%
same,inhibition in vivo at 1 mg/kg,Cynomolgus monkey [2],150%
same,inhibition in vivo at 1 mg/kg,Cynomolgus monkey [3],300%
same,bioavailability,[4],62%
same,Vd,[5],1.89 L/kg
same,Vd,[6],2.18 L/kg
same,IC50,[7],> 10 µM
same,clearance,[8],25.3 mL/min/kg
same,fold change (FC),Canis familiaris [9],>30
same,fold change (FC),Canis familiaris [10],>30
same,bioavailability,[11],39%
same,Vd,[12],1.24 L/kg
same,Vd,[13],1.4 L/kg
same,clearance,[14],38.3 mL/min/kg
same,fold change (FC),Rattus norvegicus [15],1.9
same,fold change (FC),Rattus norvegicus [16],2.25
same,fold change (FC),Rattus norvegicus [17],3
same,fold change (FC),Rattus norvegicus [18],3.25
same,fold change (FC),Rattus norvegicus [19],1.75
same,fold change (FC),Rattus norvegicus [20],3.7
same,inhibition in vivo at 3 mg/kg,Rattus norvegicus [21],90%
same,concentration at 24 h,[22],15 nM
same,concentration at 12 h,[23],200 nM
same,concentration at 6 h,[24],600 nM
same,Vdss,Rattus norvegicus [25],3.2 L/kg
same,bioavailability,[26],53%
same,Vz,Rattus norvegicus [27],8.3 L/kg
same,CL/F,[28],11.5 mL/min/kg
same,Kp,[29],2.62
same,Drug uptake,Brain,Dose-dependent effect
same,Cp,Plasma,Dose-dependent effect
same,concentration at 4 h,[30],800 nM
same,fold change (FC),Canis familiaris [31],>30
Cc1ccc(Oc2cccc(CN3CCN(C(=O)Nc4ccccc4)CC3)c2)cc1,IC50,[32],0.011 µM
same,IC50,[33],0.64 µM
O=C(Nc1ccccc1)N1CCN(Cc2ccccc2Cl)CC1,IC50,[32],4.67 µM
same,IC50,[33],> 10 µM
O=C(Nc1ccccc1)N1CCN(Cc2ccc(Cl)cc2)CC1,IC50,[32],0.128 µM
same,IC50,[33],2.67 µM
O=C(Nc1ccccc1)N1CCN(Cc2ccc(F)cc2)CC1,IC50,[32],2.77 µM
same,IC50,[33],> 10 µM
O=C(Nc1ccccc1)N1CCN(Cc2ccc(C(F)(F)F)cc2)CC1,IC50,[32],0.05 µM
same,IC50,[33],0.26 µM
O=C(Nc1ccccc1)N1CCN(Cc2ccc(Oc3ccc(Cl)cc3)cc2)CC1,IC50,[32],0.062 µM
same,IC50,[33],4 µM
N#Cc1cccc(CN2CCN(C(=O)Nc3ccccc3)CC2)c1,IC50,[32],6.67 µM
O=C(Nc1ccccc1)N1CCN(Cc2ccccc2)CC1,IC50,[32],> 10 µM
same,IC50,[33],> 10 µM
O=C(Nc1ccccc1)N1CCN(Cc2cccc(C(F)(F)F)c2)CC1,IC50,[32],0.35 µM
same,IC50,[33],0.83 µM
CC(C)(C)c1ccc(Oc2cccc(CN3CCN(C(=O)Nc4ccccc4)CC3)c2)cc1,IC50,[32],0.046 µM
same,IC50,[33],0.075 µM
N#Cc1ccc(CN2CCN(C(=O)Nc3ccccc3)CC2)cc1,IC50,[32],4.67 µM
same,IC50,[33],7.67 µM
COc1cccc(CN2CCN(C(=O)Nc3ccccc3)CC2)c1,IC50,[32],1.53 µM
